Several values for one entry are separate records, joined by “and”; a condition that tells them apart may be missing. Equal values may be shown once.
What was measured:
[1] = test system: Intestinal Tract of Rats; test: Test for ability to cause gastro-intestinal erosion in rats; type: in vivo, Male Lai: COX (SD) rats
Method: Male Lai: COX (SD) rats weighing 200-250 gm were acclimated for one week under standard laboratory conditions. Each animal was individually indentified and body weights were determined on the first day of the test and again at autopsy. The test materials, suspended in aqueous carboxymethyl cellulose vehicle, were administered orally once daily in a volume of 1.0ml per 100g body weight for four consecutive days. Food was withdrawn from the animals following the last dose and the animals were sacrificed 24 hours later. At necropsy, the stomach and intestines were removed and observed for lesions. […] The incidence of lesions for each dose level tested is reported.

[2] = test system: Adjuvant-Induced Arthritis in the Rat; test: Rat adjuvant-induced arthritis assay; type: in vivo, Female Crl:CD, br rats; conditions: oral
Method: Female Crl:CD, br rats weighting 160-180 gm were randomly distributed to treatment groups of 12 animals, and were given food and water ad libitum. Test materials were prepared fresh weekly as suspensions in aqueous carboxymethyl cellulose. Animals were orally dosed with volumes of 1 ml twice per day Monday through Friday, and with 2 ml once per day on Saturdays and Sundays. At time 0, rats were injected intradermally in the proximal quarter of the tail with 0.1 ml of a mineral oil suspension of heat killed and dried Mycobacterium butyricum (Difco) at a concentration of 10 mg/ml. After sacrifice, the hind paws of each animal were removed and weighed.

[3] = test system: Intestinal Ulceration in Rats Induced by the Subcutaneous Administration of Indomethacin; test: Protective effect against intestinal ulceration induced by subcutaneous indomethacin; type: in vivo, Male Crl:D,br rats; conditions: indomethacin 4 mg/kg/day s.c. for four days, score 0-10, vehicle 5.8 ± 1.8
Method: Male Crl:D,br rats weighing approximately 200 gm received indomethacin, 4 mg/kg, injected subcutaneously each day for four consecutive days to induce the formation of erosions and ulcers of the small intestine. Food was removed following the last dose of indomethacin and the rats were necropsied 18-24 hours later. Erosions of small intestine were scored as follows: 0 - no detectable lesions 2 - small ulcerattions (1-15) less than 1 mm 4 - small ulcerations plus 1-10 medium (2-3 mm) ulcerations 6 - predominantly medium ulceratiaons plus 2-5 severe (>4mm) ulcers without evidence of perforation 8 - many (>20) medium and severe ulcerations with evidence of perforation 10 - animals dying during assay as a consequence of intestinal perforation and septicemia.
Agents to be tested for protective effects were administered orally in an aqueous vehicle, with one-half the daily dose being administered 4 hours prior to indomethacin injection and one half the daily dose being administered at the time of indomethacin injection.

[4] = 21-day oral toxicity observation in rats; type: in vivo, male Hsd:(SD)BR rats; conditions: orally twice daily for 21 consecutive days, total daily dose 100 mg/Kg
Method: Five male Hsd:(SD)BR rats weighing 205-215 g were acclimated for approximately one week prior to use under standard laboratory conditions. Naproxen thiocholine ester iodide, suspended in aqueous carboxymethylcellulose vehicle was administered orally twice daily in a volume of 1.0 ml per 200 g body weight for 21 consecutive days at a total daily dose of 100 mg/Kg.

[5] = daily dose 200 mg/kg orally, four consecutive days, erosions graded 0-10, five rats
[6] = daily dose 300 mg/kg orally, four consecutive days, erosions graded 0-10, five rats, 300 mg/kg
[7] = daily dose 400 mg/kg orally, four consecutive days, erosions graded 0-10, five rats, 400 mg/kg
[8] = daily dose 25 mg/kg orally, four consecutive days, erosions graded 0-10, five rats
[9] = daily dose 5 mg/kg orally, four consecutive days, erosions graded 0-10, five rats

## COc1ccc2cc([C@H](C)C(=O)SCC[N+](C)(C)C)ccc2c1 [Naproxen thiocholine ester chloride, naproxen thiocholine ester chloride]
[1]; [5]
  Mean Intestinal Ulcer Score ± 1Std. Dev.: 0.4 ± 0.9
[1]; [6]
  Mean Intestinal Ulcer Score ± 1Std. Dev.: 1.6 ± 0.9
[1]; [7]
  Mean Intestinal Ulcer Score ± 1Std. Dev.: 5.6 ± 2.2

## C[N+](C)(C)CCSC(=O)C1CCn2c(C(=O)c3ccccc3)ccc21 (centres unmarked) [Ketorolac thiocholine ester iodide, ketorolac thiocholine ester iodide]
[1]; [8]
  Mean Intestinal Ulcer Score ± 1Std. Dev.: 2.0 ± 2.0
[1]; daily dose 50 mg/kg orally, four consecutive days, erosions graded 0-10, five rats
  Mean Intestinal Ulcer Score ± 1Std. Dev.: 6.4 ± 0.9
[1]; daily dose 75 mg/kg orally, four consecutive days, erosions graded 0-10, five rats
  Mean Intestinal Ulcer Score ± 1Std. Dev.: 7.2 ± 1.1
[2]; daily dose 1.0 mg/kg
  Percent Inhibition of Hind Paw Weight: 10%
[2]; daily dose 5.0 mg/kg, 5 mg/kg
  Percent Inhibition of Hind Paw Weight: 79% and 56%

## COc1ccc2c(c1)c(CC(=O)SCC[N+](C)(C)C)c(C)n2C(=O)c1ccc(Cl)cc1 [Indomethacin thiocholine ester iodide, indomethacin thiocholine ester iodide]
[1]; [8]
  Mean Intestinal Ulcer Score ± 1Std. Dev.: 0
[1]; daily dose 100 mg/kg orally, four consecutive days, erosions graded 0-10, five rats
  Mean Intestinal Ulcer Score ± 1Std. Dev.: 0
[2]; daily dose 7.0 mg/kg
  Percent Inhibition of Hind Paw Weight: 15%
[2]; daily dose 14 mg/kg
  Percent Inhibition of Hind Paw Weight: 59%

## COc1ccc2cc([C@H](C)C(=O)O)ccc2c1 [Naproxen, 2-(6′-methoxy-2′-naphthyl)propionic acid, reference compound]
[1]; daily dose 20 mg/kg orally, four consecutive days, erosions graded 0-10, five rats
  Mean Intestinal Ulcer Score ± 1Std. Dev.: 1.6 ± 0.9
[1]; [8]
  Mean Intestinal Ulcer Score ± 1Std. Dev.: 3.2 ± 1.1
[1]; daily dose 30 mg/kg orally, four consecutive days, erosions graded 0-10, five rats
  Mean Intestinal Ulcer Score ± 1Std. Dev.: 6.4 ± 1.7
[1]; daily dose 35 mg/kg orally, four consecutive days, erosions graded 0-10, five rats
  Mean Intestinal Ulcer Score ± 1Std. Dev.: 7.6 ± 0.9
[2]; daily dose 1.4 mg/kg
  Percent Inhibition of Hind Paw Weight: 22%
[2]; daily dose 3.5 mg/kg
  Percent Inhibition of Hind Paw Weight: 70%
[2]; daily dose 7.0 mg/kg
  Percent Inhibition of Hind Paw Weight: 77%

## COc1ccc2cc([C@H](C)C(=O)SCC[N+](C)(C)C)ccc2c1 [Naproxen thiocholine ester iodide, NAPROXEN THIOCHOLINE ESTER IODIDE]
[1]; daily dose 150 mg/kg orally, four consecutive days, erosions graded 0-10, five rats
  Mean Intestinal Ulcer Score ± 1Std. Dev.: 0
[1]; [5]
  Mean Intestinal Ulcer Score ± 1Std. Dev.: 0.4 ± 0.9
[1]; daily dose 250 mg/kg orally, four consecutive days, erosions graded 0-10, five rats
  Mean Intestinal Ulcer Score ± 1Std. Dev.: 1.6 ± 1.7
[1]; [6]
  Mean Intestinal Ulcer Score ± 1Std. Dev.: 3.0 ± 1.7
[1]; [7]
  Mean Intestinal Ulcer Score ± 1Std. Dev.: 7.2 ± 1.1
[3]; oral dose 5 mg/kg/day
  Intestinal Erosion Score Mean ± S.D.: 4.0 ± 2.4
[3]; oral dose 10 mg/kg/day
  Intestinal Erosion Score Mean ± S.D.: 2.4 ± 0.9
[3]; oral dose 20 mg/kg/day
  Intestinal Erosion Score Mean ± S.D.: 1.8 ± 2.4
[3]; oral dose 50 mg/kg/day
  Intestinal Erosion Score Mean ± S.D.: 0.8 ± 1.1
[2]; daily dose 7.0 mg/kg
  Percent Inhibition of Hind Paw Weight: 40%
[2]; daily dose 10 mg/kg
  Percent Inhibition of Hind Paw Weight: 69%
[2]; daily dose 14 mg/kg, 14 mg/kg
  Percent Inhibition of Hind Paw Weight: 40% and 53%
[2]; daily dose 28 mg/kg, 28 mg/kg
  Percent Inhibition of Hind Paw Weight: 51% and 75%
[4]
  gross signs of toxicity: did not produce any gross signs of toxicity

## COc1ccc2c(c1)c(CC(=O)O)c(C)n2C(=O)c1ccc(Cl)cc1 [Indomethacin, indomethacin, reference compound]
[1]; [9]
  Mean Intestinal Ulcer Score ± 1Std. Dev.: 7.2 ± 1.9
[2]; daily dose 2.0 mg/kg
  Percent Inhibition of Hind Paw Weight: 75%

## O=C(c1ccccc1)c1ccc2n1CCC2C(=O)O (centres unmarked) [Ketorolac, ketorolac, reference compound]
[1]; [9]
  Mean Intestinal Ulcer Score ± 1Std. Dev.: 1.9 ± 0.9
[1]; rat, in vivo, po, 10 mg/kg
  Mean Intestinal Ulcer Score ± 1Std. Dev.: 4.8 ± 1.7
[1]; rat, in vivo, po, 20 mg/kg
  Mean Intestinal Ulcer Score ± 1Std. Dev.: 7.4 ± 1.7
[2]; daily dose 0.1 mg/kg
  Percent Inhibition of Hind Paw Weight: 5%
[2]; daily dose 0.5 mg/kg
  Percent Inhibition of Hind Paw Weight: 14%
[2]; daily dose 2.5 mg/kg
  Percent Inhibition of Hind Paw Weight: 59%

— patent EP0289262A2, “Omega-quaternary ammonium alkyl esters and thioesters of acidic nonsteroidal antiinflammatory drugs” (priority 1987, dated 1988)
